From patent US20220378923A1, “BET DEGRADER” (KYOWA KIRIN CO., LTD., priority 2019, published 2022)

Tested on: DCAF16 KO SU-DHL-4 cells
Assay: Inhibitory effect on cell viability using SU-DHL-4 DCAF16 knock out (KO) cell line (Test Example 6)
Assay type: cell-based, human
Conditions: for Activity Attenuation Ratio: (SU-DHL-4 DCAF16 KO IC50)/(SU-DHL-4 WT IC50); for IC50: DCAF16 KO SU-DHL-4 cells, 72 hours, Cell Counting Kit-8, 50% inhibition of cell viability
Method in brief: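 SU-DHL-4 DLBCL cells carrying lentiviral Cas9 plus DCAF16-targeting sgRNA (three KO strains; non-targeting control strain), seeded 2000 cells/well, pre-cultured 18–25 h, then given 9-step compound dilutions (0.1% DMSO final) for 72 h at 37° C. Viability read by CCK-8 colorimetric assay.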

| SMILES | Activity Attenuation Ratio | IC50 (Homo sapiens) | IC50 |
| --- | --- | --- | --- |
| CCC(=O)N1c2ccccc2[C@H](Nc2ccc(-c3nnc(CNC(=O)C4CCN(Cc5cc(O)cc(-c6c(C)noc6C)c5)CC4)o3)cc2)C[C@@H]1C [Compound 12a, 1-(3-(3,5-Dimethylisoxazol-4-yl)-5-hydroxybenzyl)-N-((5-(4-(((2S,4R)-2-methyl-1-propionyl-1,2,3,4-tetrahydroquinolin-4-yl)amino)phenyl)-1,3,4-oxadiazol-2-yl)methyl)piperidine-4-carboxamide] | 693 | 0.354 µM |  |
| CCC(=O)N1c2ccccc2[C@H](Nc2ccc(NC(=O)CCNC(=O)c3ccc(N[C@@H]4C[C@H](C)N(C(=O)CC)c5ccccc54)cc3)cc2)C[C@@H]1C (relative stereo) [Compound 2f, 4-{[(2S,4R)-2-Methyl-1-propionyl-1,2,3,4-tetrahydroquinolin-4-yl]amino}-N-{3-[(4-{[(2S*,4R*)-2-methyl-1-propionyl-1,2,3,4-tetrahydroquinolin-4-yl]amino}phenyl)amino]-3-oxopropyl}benzamide] | 1111 | 0.1 µM |  |
| CCC(=O)N1c2ccccc2[C@H](Nc2ccc(NC(=O)N3CCN(C(=O)C4CCC(N[C@@H]5C[C@H](C)N(C(=O)CC)c6ccccc65)CC4)CC3)cc2)C[C@@H]1C (stereo partly drawn) [Compound 7p, 4-((1R,4r)-4-(((2S,4R)-2-Methyl-1-propionyl-1,2,3,4-tetrahydroquinolin-4-yl)amino)cyclohexane-1-carbonyl)-N-(4-(((2S,4R)-2-methyl-1-propionyl-1,2,3,4-tetrahydroquinolin-4-yl)amino)phenyl)piperazine-1-carboxamide] | 766 |  | 0.293 µM |
| CCC(=O)N1c2ccccc2[C@H](Nc2ccc(C(=O)NCCCNC(=O)c3ccc(C4=N[C@@H](CC(=O)OC5CCC(O)CC5)c5nnc(C)n5-c5sc(C)c(C)c54)cc3)cc2)C[C@@H]1C (stereo partly drawn) [Compound 13d, 4-Hydroxycyclohexyl 2-((S)-2,3,9-trimethyl-4-(4-((3-(4-(((2S,4R)-2-methyl-1-propionyl-1,2,3,4-tetrahydroquinolin-4-yl)amino)benzamide)propyl)carbamoyl)phenyl)-6H-thieno[3,2-f][1,2,4]triazolo[4,3-a][1,4]diazepin-6-yl)acetate] | 52 |  | 0.0278 µM |
| CCC(=O)N1c2ccccc2[C@H](Nc2ccc(NC(=O)CCCC(=O)NC3CCN(Cc4cc(O)cc(-c5c(C)noc5C)c4)CC3)cc2)C[C@@H]1C [Compound 12c, N^1-(1-(3-(3,5-Dimethylisoxazol-4-yl)-5-hydroxybenzyl)piperidin-4-yl)-N^5-(4-(((2S,4R)-2-methyl-1-propionyl-1,2,3,4-tetrahydroquinolin-4-yl)amino)phenyl)glutaramide] | >44436 | > 10 µM |  |
| CCC(=O)N1c2ccccc2[C@H](Nc2ccc(NC(=O)CCCC(=O)Nc3cccc(Oc4ccccc4-c4cn(C)c(=O)cc4OC)c3)cc2)C[C@@H]1C [Compound 16m, N^1-(3-(2-(4-Methoxy-1-methyl-6-oxo-1,6-dihydropyridin-3-yl)phenoxy)phenyl)-N5-(4-(((2S,4R)-2-methyl-1-propionyl-1,2,3,4-tetrahydroquinolin-4-yl)amino)phenyl)glutaramide] | 338 | 0.208 µM |  |
| CCC(=O)N1c2ccccc2[C@H](Nc2ccc(NC(=O)CCCC(=O)Nc3ccc(Cn4c(C(=O)OCCN(C)C)cc5c4CCCC5=O)cc3)cc2)C[C@@H]1C [Compound 15a, 2-(Dimethylamino)ethyl 1-(4-(5-((4-(((2S,4R)-2-methyl-1-propionyl-1,2,3,4-tetrahydroquinolin-4-yl)amino)phenyl)amino)-5-oxopentanamide)benzyl)-4-oxo-4,5,6,7-tetrahydro-1H-indole-2-carboxylate] | 225 |  | 0.063 µM |
| CCC(=O)N1c2ccccc2[C@H](Nc2ccc(NC(=O)CNC(=O)N[C@H]3CC[C@H](N[C@@H]4C[C@H](C)N(C(=O)CC)c5ccccc54)CC3)cc2)C[C@@H]1C [Compound 8j, 2-(3-((1R,4R)-4-(((2S,4R)-2-Methyl-1-propionyl-1,2,3,4-tetrahydroquinolin-4-yl)amino)cyclohexyl)ureido)-N-(4-(((2S,4R)-2-methyl-1-propionyl-1,2,3,4-tetrahydroquinolin-4-yl)amino)phenyl)acetamide] | 767 |  | 0.228 µM |
| CCC(=O)N1c2ccccc2[C@H](Nc2ccc(C(=O)N3CC4CC3CN4C(=O)c3ccc(N[C@@H]4C[C@H](C)N(C(=O)CC)c5ccccc54)cc3)cc2)C[C@@H]1C [Compound 1k, 1,1′-{(2S,2'S,4R,4′R)-{[(2,5-Diazabicyclo[2.2.1]heptane-2,5-dicarbonyl)bis(4,1-phenylene)]bis(azanediyl)}bis[2-methyl-3,4-dihydroquinoline-4,1(2H)-diyl]}bis(propan-1-one)] | 34 | 0.00742 µM |  |
| CCC(=O)N1c2ccccc2[C@H](Nc2ccc(C(=O)N3CCn4c(-c5ccc(N[C@@H]6C[C@H](C)N(C(=O)CC)c7ccccc76)cc5)cnc4C3)cc2)C[C@@H]1C [Compound 3e, 1-[(2S,4R)-2-Methyl-4-({4-[3-(4-{[(2S,4R)-2-methyl-1-propionyl-1,2,3,4-tetrahydroquinolin-4-yl]amino}phenyl)-5,6,7,8-tetrahydroimidazo[1,2-a]pyrazine-7-carbonyl]phenyl}amino)-3,4-dihydroquinolin-1(2H)-yl]propan-1-one] | 9515 | 0.951 µM |  |
| CCC(=O)N1c2ccccc2[C@H](Nc2ccc(-c3cnn(CCNC(=O)c4ccc(Cn5c(C(=O)OCCN(C)C)cc6c5CCCC6=O)cc4)c3)cc2)C[C@@H]1C [Compound 15d, 2-(Dimethylamino)ethyl 1-(4-((2-(4-(4-(((2S,4R)-2-methyl-1-propionyl-1,2,3,4-tetrahydroquinolin-4-yl)amino)phenyl)-1H-pyrazol-1-yl)ethyl)carbamoyl)benzyl)-4-oxo-4,5,6,7-tetrahydro-1H-indole-2-carboxylate] | 7994 | 0.858 µM |  |
| CCC(=O)N1c2ccccc2C(Nc2ccc(NC(=O)C#CCNC(=O)c3ccc(N[C@@H]4C[C@H](C)N(C(=O)CC)c5ccccc54)cc3)cc2)CC1C (stereo partly drawn) [Compound 6h, 4-(((2S,4R)-2-Methyl-1-propionyl-1,2,3,4-tetrahydroquinolin-4-yl)amino)-N-(4-((4-((2-methyl-1-propionyl-1,2,3,4-tetrahydroquinolin-4-yl)amino)phenyl)amino)-4-oxobut-2-yn-1-yl)benzamide] | 2250 | 0.0068 µM |  |
| CCNC(=O)C[C@@H]1N=C(c2ccc(SCCCCSc3ccc(C4=N[C@@H](CC(=O)NCC)c5nnc(C)n5-c5ccc(OC)cc54)cc3)cc2)c2cc(OC)ccc2-n2c(C)nnc21 [compound 1, 2,2′-((4S,4'S)-6,6′-((butane-1,4-diylbis(sulfanediyl))bis(4,1-phenylene))bis(8-methoxy-1-methyl-4H-benzo[f][1,2,4]triazolo[4,3-a][1,4]diazepine-6,4-diyl))bis(N-ethylacetamide), reference compound] | 0.23 |  | 0.0492 µM |
| CCC(=O)N1c2ccccc2[C@H](Nc2ccc(NC(=O)CNCC(=O)Nc3ccc(N[C@@H]4C[C@H](C)N(C(=O)CC)c5ccccc54)cc3)cc2)C[C@@H]1C [Compound 5d, 2,2′-Azanediylbis(N-(4-(((2S,4R)-2-methyl-1-propionyl-1,2,3,4-tetrahydroquinolin-4-yl)amino)phenyl)acetamide)] | 546 | 0.167 µM |  |
